Measurements from patent US20260207708A1, “THERAPEUTIC USES OF ADIPOSE-SECRETED SIGNALING PROTEIN (ADISSP)” (UNIVERSITY OF MASSACHUSETTS, priority 2023, published 2026).
Where two headings read alike, the source gives them in different places.

Tests used:
Glut4 = Glut4 trafficking to the plasma membrane in Myc-Glut4-GFP transfected adipocytes; type: cell-based; details: adipocytes serum-starved overnight, treated 30 min; for Glut4 localization to the plasma membrane: Myc staining without permeabilization
Method: To evaluate effects of ADISSP on Glut4 trafficking to the plasma membrane, adipocytes were transfected with a Myc-Glut4-GFP plasmid, in which Myc and GFP were fused to the extracellular and intracellular regions of Glut4, respectively. The Adipocytes were serum-starved overnight, and then treated with purified ADISSP protein or insulin for 30 min. The adipocytes were fixed without permeabilization, and stained with Myc antibody and DAPI. […] 95% of GFP-positive cells were also Myc-positive after either ADISSP or insulin treatment, while very few GFP-positive cells were Myc-positive in control samples.

[1] = tested on: STZ-induced type 1 diabetic mice; assay: Low-dose streptozotocin (STZ)-induced type 1 diabetic mice; type: in vivo; details: STZ 50 mg/kg daily Day 1 to Day 5
Method: (§1) The effects of ADISSP protein administration on blood glucose and polyuria were evaluated in streptozotocin (STZ)-induced type 1 diabetic mice. A single dose (200 mg/kg) of STZ was ip injected into C57BL6 mice. Eight days post injection, as expected, high-dose STZ caused extremely severe type 1 diabetes with ad libitum glucose level (>600 mg/dL) exceeding the upper limit of the glucose meter. The mice were ip injected with ADISSP protein (50 nmole/kg) or vehicle at 0 hr and 24 h. After each injection, mice were fasted for 6 hours before glucose measurement so the glucose level in the vehicle group would fall below 600 mg/dL. […] We were not able to continue the experiment because the mice were not healthy due to the high dose of STZ. To account for this, a low dose (50 mg/kg) of STZ was injected daily from Day 1 to Day 5 to produce healthy, type 1 diabetes mice. From Day 13, glucose was measured at 7:30 am followed by ip injection of ADISSP protein (70 nmole/kg) or vehicle once a day at 8 am for two weeks. At Day 13, glucose was measured after 2 hour fasting, all other time points were measured at ad libitum state.

[2] = tested on: insulin receptor substrate 1 (IRS1); assay: IRS1 activation in serum-starved brown adipocytes; type: cell-based; details: ADISSP 300 nM, 30 min
Method: (§2) In some cases adipocytes were pre-treated with inhibitors for 2 hr: S961 (0.5 μM), Melittin (1 μM), Gallein (5 μM), wortmannin (1 μM), and LDC1267 (1 μM).

tyrosine phosphorylation = assay: Tyrosine phosphorylation in serum-starved brown adipocytes; type: cell-based; details: ADISSP 300 nM, 30 min
Method: as §2

DIO mice [3] = assay: Two-week treatment of high fat-induced obese (DIO) mice; type: in vivo; details: 65 nmole/kg ip once a day, 14 injections
Method: In the experiment shown in FIGS. 7A-G, all daily glucose levels were measured 24-hr post ADISSP injection. A much stronger glucose reduction would have been observed if measured at earlier time points, e.g., at 6-hr or 12-hr following protein injection. […] Male mice (n=19 mice/group) were fed a high fat diet for 20 weeks to render them obese and hyperglycemia. Mice were then ip injected with ADISSP protein (65 nmole/kg) once a day at 8 am for a total of 14 injections. Glucose levels at ad libitum state were measured at 7:30 am, […]. Insulin levels and livers were examined.

euglycemic mice = type: in vivo; details: 70 nmole/kg ip, 3 hr after injection
Method: (§3) To explore the mechanism of ADISSP action in vivo, 3-month-old male mice (n=4/group) with euglycemia were intraperitoneally (ip) injected with purified ADISSP protein (70 nmole/kg) at 0 hr. Glucose and insulin levels and Akt activation were measured 3 hr after injection.

Akt [4] = assay: Akt activation in adipose tissue in vivo after single ip dose; parameters: species or system mice; details: 70 nmole/kg ip, 3 hr after injection
Method: as §3

Akt [5] = assay: Akt activation in serum-starved brown adipocytes; type: cell-based; details: for blocking of Akt activation by ADISSP: adipocytes pre-treated with inhibitor 2 hr: S961 0.5 μM, Melittin 1 μM, Gallein 5 μM, wortmannin 1 μM, LDC1267 1 μM, then ADISSP 300 nM 30 min
Method: as §2

ob/ob mice [6] = assay: ob/ob mice, single dose then once every 48 hours; type: in vivo
Method: The effects of injection of purified ADISSP protein were evaluated on hyperglycemia, hyperinsulinemia, and liver steatosis in ob/ob mice (6 male and 9 female mice in control group and 5 male and 10 female mice in treatment group), which were used as a type 2 diabetic mouse model. The mice were injected intraperitoneally with vehicle or a single dose of purified ADISSP protein (50 nmole/kg). Glucose was monitored for 46 hours. Note, no food was provided in the first 8 hours. […] The glucose-lowering effect of ADISSP protein was not due to any difference of food intake, as there was no food provided in the first 8 hours. 46 hours post the first injection, ob/ob mice were injected with ADISSP (50 nmole/kg) once every 48 hour at 8 am (arrow). Mice were fed ad libitum.

DIO mice [7] = type: in vivo; details: 71 nmole/kg per day ip, one month
Method: We next performed a one-month treatment of hyperglycemic DIO mice (n=19-20 DIO mice/group) with purified ADISSP protein. Glucose levels were measured every day at 7:30 am followed by daily intraperitoneal injection of ADISSP (71 nmole/kg per day). […] Hypertriglyceridemia (FIG. 9J) and high level of Aspartate aminotransferase (AST) (indicative of liver damage caused by fatty liver) (FIG. 9K) were normalized as well.

ob/ob mice [8] = type: in vivo
Method: To evaluate longer-term effects of treatment with ADISSP, 12-week ob/ob mice (6 male and 8 female mice in control group and 8 male and 8 female mice in treatment group) were used. Glucose levels were measured at 7 am daily. Vehicle or ADISSP protein (62.6 nmole/kg per day) was ip injected once a day at 8 am for 30 days. […] In addition, after one-month treatment of ob/ob mice with ADISSP protein, bone density was examined by X-Ray. […] Instead, a slight increase was observed, as shown in the region in the box in FIG. 7G. Loss of bone density is associated with FGF21 and diabetes drug TZDs.

GAN diet NASH mice = assay: Gubra Amylin NASH (GAN) diet mice: NASH and cardiac hypertrophy; type: in vivo, C57BL6J mice
Text: To examine the potential effects of Adissp protein on NASH, we fed wild-type male C57BL6J mice with the Gubra Amylin NASH (GAN) diet (Research Diets, D09100310) for 32 weeks to induce a NASH phenotype resembling human NASH. We then treated these mice with Adissp (113 nmole/kg per day) or vehicle. […] At Day 16 of the treatment, a sub-group of mice were sacrificed and NASH phenotype was examined. […] Thus, treatment with Adissp protein rapidly resolved the NASH phenotype.
The remaining mice were continuously treated with 63 nmole/kg per day Adissp protein or vehicle for 31 days.

[9] = tested on: STZ-induced type 1 diabetic mice; assay: High-dose streptozotocin (STZ)-induced type 1 diabetic mice; type: in vivo, C57BL6 mice; details: STZ 200 mg/kg single dose, ADISSP 50 nmole/kg ip at 0 hr and 24 h
Method: as §1

[10] = 62.6 nmole/kg per day ip, 30 days
[11] = 113 nmole/kg per day, Day 16 of treatment

## insulin [reference compound]
Glut4
  GFP-positive cells also Myc-positive: 95%
  Glut4 localization to the plasma membrane: induced Glut4 localization to the plasma membrane

## ADISSP: recombinant adipose-secreted signaling protein with C-terminal His-tag, purified from medium of transfected Expi293F cells
[1]; ADISSP 70 nmole/kg ip once a day for two weeks
  polyuria: improved polyuria
[1]; ADISSP 70 nmole/kg ip once a day for two weeks from Day 13
  blood glucose: markedly lowered blood glucose
[2]
  activation of insulin receptor substrate 1 (IRS1): did not activate
Tyrosine phosphorylation
  tyrosine phosphorylation: induces a bulk of tyrosine phosphorylation
DIO mice [3]
  fatty liver: amelioration of fatty liver
  hyperinsulinemia: reduced hyperinsulinemia
  liver weight: reduction of liver weight
DIO mice [3]; ad libitum, 6 hr, 12 hr and 24 hr from injection
  daily glucose levels: clear improvement in daily glucose levels
Glut4
  GFP-positive cells also Myc-positive: 95%
  Glut4 localization to the plasma membrane: induced Glut4 localization to the plasma membrane
Euglycemic mice
  insulin secretion: did not stimulate insulin secretion
Euglycemic mice; 3-month-old male mice
  blood glucose level: lowers blood glucose level
Akt [4]
  Akt activation in vivo (BAT, iWAT, eWAT): activated Akt in vivo
Akt [5]; serum-starved brown adipocytes, ADISSP 300 nM, 30 min
  Akt activation: activates Akt independently of insulin receptor
ob/ob mice [6]; 50 nmole/kg once every 48 hour
  duration of glucose-lowering effect after each subsequent injection: at least 48 hours
  hyperinsulinemia: improvement in hyperinsulinemia
ob/ob mice [6]; 50 nmole/kg once every 48 hour, fed ad libitum
  glucose lowered on average: 83.5 mg/dL
ob/ob mice [6]; 50 nmole/kg once every 48 hour, liver colour and histology
  liver steatosis: improved
ob/ob mice [6]; injection once every 48 hours
  hyperglycemia: sufficient to normalize hyperglycemia
ob/ob mice [6]; post injection
  onset of glucose lowering: two
ob/ob mice [6]; single dose 50 nmole/kg ip
  duration of glucose-lowering effect of a single dose: more than 20 hours
DIO mice [7]
  Aspartate aminotransferase (AST) level: normalized
  body weight: decreased body weight
  fat mass: reduction of fat mass
  fatty liver: completely reversed fatty liver
  glucose tolerance: markedly improved
  hyperglycemia (daily glucose levels): completely normalized hyperglycemia
  hypertriglyceridemia (serum triglycerides): normalized
  insulin sensitivity: markedly improved
  lean mass: but not lean mass
  liver weight: normalized liver weight
  surface body temperature: higher surface body temperature
ob/ob mice [8]; [10]
  body weight gain: reduced body weight gain
  glucose tolerance: improved glucose tolerance
  insulin sensitivity: improved
  liver steatosis: ameliorated liver steatosis
ob/ob mice [8]; 62.6 nmole/kg per day ip, 30 days, glucose measured 24-hr post injection
  hyperglycemia (daily glucose levels): normalized hyperglycemia
ob/ob mice [8]; mouse, in vivo
  bone density by X-Ray: did not see decreased bone density. Instead, a slight increase was observed
GAN diet NASH mice; [11]
  fibrosis (Sirius Red staining): greatly alleviated
  hepatomegaly (liver size and weight): ameliorated
  inflammation: ameliorated
  steatosis: ameliorated
GAN diet NASH mice; GAN diet 32 weeks, 113 nmole/kg per day
  hyperglycemia (blood glucose): normalized hyperglycemia
GAN diet NASH mice; remaining mice continued at 63 nmole/kg per day for 31 days
  cardiac hypertrophy (heart weight and size): resolved high fat diet-induced cardiac hypertrophy
[9]
  polyuria: improvement in polyuria
[9]; 6 hours fasted after each injection
  decrease of glucose levels: 41-48%

## CCOc1cn(-c2ccc(F)cc2C)nc1C(=O)Nc1ccc(Oc2ccnc3cc(OC)c(OC)cc23)c(F)c1 [LDC1267]
Akt [5]
  blocking of Akt activation by ADISSP: blocks

## CC[C@H](C)[C@H](NC(=O)CN)C(=O)NCC(=O)N[C@@H](C)C(=O)N[C@H](C(=O)N[C@@H](CC(C)C)C(=O)N[C@@H](CCCCN)C(=O)N[C@H](C(=O)N[C@@H](CC(C)C)C(=O)N[C@H](C(=O)N[C@H](C(=O)NCC(=O)N[C@@H](CC(C)C)C(=O)N1CCC[C@H]1C(=O)N[C@@H](C)C(=O)N[C@@H](CC(C)C)C(=O)N[C@H](C(=O)N[C@@H](CO)C(=O)N[C@@H](Cc1c[nH]c2ccccc12)C(=O)N[C@H](C(=O)N[C@@H](CCCCN)C(=O)N[C@@H](CCCNC(=N)N)C(=O)N[C@@H](CCCCN)C(=O)N[C@@H](CCCNC(=N)N)C(=O)N[C@@H](CCC(N)=O)C(=O)N[C@@H](CCC(N)=O)C(N)=O)[C@@H](C)CC)[C@@H](C)CC)[C@@H](C)O)[C@@H](C)O)C(C)C)C(C)C [Melittin]
Akt [5]
  blocking of Akt activation by ADISSP: not blocked

## O=C1OC2(c3ccccc31)c1ccc(O)c(O)c1Oc1c2ccc(O)c1O [Gallein]
Akt [5]
  blocking of Akt activation by ADISSP: not blocked
